Data reported in patent US6214860A, “Synergistic antitumor composition containing a naphthalensulphonic acid derivative” (Pharmacia & Upjohn S.p.A., priority 1997, dated 2001).
Where two headings read alike, the source gives them in different places.

Legend:
[1] = test system: M5076 murine reticulosarcoma cells; assay: In vitro antiproliferative activity (% cell growth vs untreated control); type: cell-based; conditions: for antiproliferative activity in the presence of PNU 145156E: in words, PNU 145156E 50000 ng/ml vs 0 ng/ml
Description: (§1) The combinations were assayed in vitro on M5076 murine reticulosarcoma cells and in vivo on the same tumor cells implanted intramuscularly.

[2] = days 1, 4, 7 and 11, combination: + PNU 145156E 100 mg/kg ip 2 h prior
Description: Mice C57BL/6 were implanted with M5076 murine reticulosarcoma cells. PNU 145156E was administered ip 2 h prior to cytotoxic drugs administered iv starting treatment 24 h after tumor implant. Treatments were performed at days 1, 4, 7 and 11.
The toxicological evaluation was performed in terms of body weight loss and spleen and liver reduction.

[3] = test system: M5076 murine reticulosarcoma cells; assay: In vivo antitumor activity in mice implanted with M5076 tumor cells; parameters: species or system Mice C57BL/6; conditions: days 1, 4, 7 and 11, combination: + PNU 145156E 100 mg/kg ip 2 h prior; for A.U.C. % inhib. (inhibition of tumor growth): one week after last treatment; for TGD (tumor growth delay): time to reach one gram
Description: as §1
The antitumor activity was calculated in terms of:
% AUC: inhibition of tumor growth
T/C %: percentage of median increase in survival time
The A.U.C. (area under the curve) of the tumor growth was calculated by using the trapezoidal method, and is referred to the measurement of tumor growth performed one week after the last treatment. The percentage of inhibition (% A.U.C.) was calculated using the following formula: [formula]
The percentage of increase in survival time (T/C% ) was calculated using the following formula: [formula]
Mice were monitored according to guidelines and sacrificed when tumor weight exceeded 10% body weight. Tumor growth delay (TGD) is the time, in days, to reach one gram of tumor weight in treated animals as compared to control animals.
Evaluation of statistical significance was performed as follows: Student's Test for cytotoxic activity, Two-Way Anova for increase in survival time (T/C %) with combined treatment in comparison to the increase exerted separately by the two drugs, Tukey Test for tumor weight reduction (AUC % inhibition) with combined treatment in comparison to the reduction exerted separately by the two drugs.
The criterion for statistical significance was the 0.01 level ( )

[4] = cytotoxic 40 ng/ml + PNU 145156E 50000 ng/ml, 72 h, 37° C.

In the case of `CC[C@@]1(O)C(=O)OCc2c1cc1n(c2=O)Cc2cc3c(N)cccc3nc2-1` [9-AC, 9-aminocamptothecin], the activity at 0.0025 µg/mL ([1]; Mus musculus, M5076, 72 h, cytotoxic 2.5 ng/ml, PNU 145156E 0 ng/ml, 72 h, 37° C., read-out: % cell growth ± S.E.) is reported as 88 ± 10%, the activity at 0.01 µg/mL ([1]; Mus musculus, M5076, 72 h, cytotoxic 10 ng/ml, PNU 145156E 0 ng/ml, 72 h, 37° C., read-out: % cell growth ± S.E.) is reported as 28 ± 2% and the activity at 0.04 µg/mL ([1]; Mus musculus, M5076, 72 h, cytotoxic 40 ng/ml, PNU 145156E 0 ng/ml, 72 h, 37° C., read-out: % cell growth ± S.E.) is reported as 7 ± 2%. The “% cell growth ± S.E.” value ([1]; cytotoxic 2.5 ng/ml + PNU 145156E 50000 ng/ml, 72 h, 37° C.) was 76 ± 6%, the “% cell growth ± S.E.” value ([1]; cytotoxic 10 ng/ml + PNU 145156E 50000 ng/ml, 72 h, 37° C.) was 29 ± 9% and the “% cell growth ± S.E.” value [1, 4] was 8 ± 3%. For the same molecule, the “antiproliferative activity in the presence of PNU 145156E” value (“antiproliferative activity” below) [1] was “unchanged in the presence of PNU 145156E”, the Toxic/total mice ([2]; 9AC 2.5 mg/kg iv) was 0/10 and the Toxic/total mice ([2]; 9AC 3 mg/kg iv) was 0/10. For the same molecule, the Toxic/total mice ([2]; 9AC 3.5 mg/kg iv) was 1/10, the “T/C % (median increase in survival time)” value ([3]; 9AC 2.5 mg/kg iv) was 121% and the Tumor weight ([3]; 9AC 2.5 mg/kg iv) was 2.4 ± 0.9 gr. For the same molecule, the “A.U.C. % inhib. (inhibition of tumor growth)” value ([3]; 9AC 2.5 mg/kg iv) was 45%, the “TGD (tumor growth delay)” value ([3]; 9AC 2.5 mg/kg iv) was 5 days and the “T/C % (median increase in survival time)” value ([3]; 9AC 3 mg/kg iv) was 125%. For the same molecule, the Tumor weight ([3]; 9AC 3 mg/kg iv) was 2.13 ± 0.8 gr, the “A.U.C. % inhib. (inhibition of tumor growth)” value ([3]; 9AC 3 mg/kg iv) was 48% and the “TGD (tumor growth delay)” value ([3]; 9AC 3 mg/kg iv) was 6 days. For the same molecule, the “T/C % (median increase in survival time)” value ([3]; 9AC 3.5 mg/kg iv) was 128%, the Tumor weight ([3]; 9AC 3.5 mg/kg iv) was 1.58 ± 0.6 gr and the “A.U.C. % inhib. (inhibition of tumor growth)” value ([3]; 9AC 3.5 mg/kg iv) was 68%. The “TGD (tumor growth delay)” value ([3]; 9AC 3.5 mg/kg iv) was 8 days.
With `N.N.[Cl][Pt][Cl]` [CIS, cisplatin] the “% cell growth ± S.E.” value ([1]; cytotoxic 8 ng/ml + PNU 145156E 50000 ng/ml, 72 h, 37° C.) was 83 ± 7%, the “% cell growth ± S.E.” value ([1]; cytotoxic 8 ng/ml, PNU 145156E 0 ng/ml, 72 h, 37° C.) was 91 ± 3% and the “% cell growth ± S.E.” value [1, 4] was 46 ± 3%. For the same molecule, the “% cell growth ± S.E.” value ([1]; cytotoxic 40 ng/ml, PNU 145156E 0 ng/ml, 72 h, 37° C.) was 52 ± 7%, the “% cell growth ± S.E.” value ([1]; cytotoxic 200 ng/ml + PNU 145156E 50000 ng/ml, 72 h, 37° C.) was 4 ± 1% and the “% cell growth ± S.E.” value ([1]; cytotoxic 200 ng/ml, PNU 145156E 0 ng/ml, 72 h, 37° C.) was 9 ± 5%. The “antiproliferative activity” value [1] was “unchanged in the presence of PNU 145156E”, the “T/C % (median increase in survival time)” value ([3]; CIS 6 mg/kg iv) was 130% and the Tumor weight ([3]; CIS 6 mg/kg iv) was 1.1 ± 0.1 gr. The “A.U.C. % inhib. (inhibition of tumor growth)” value ([3]; CIS 6 mg/kg iv) was 75% and the “TGD (tumor growth delay)” value ([3]; CIS 6 mg/kg iv) was 11 days.
In the case of `CCc1c2c(nc3ccc(OC(=O)N4CCC(N5CCCCC5)CC4)cc13)-c1cc3c(c(=O)n1C2)COC(=O)[C@]3(O)CC` [CPT-11, irinotecan], the Toxic/total mice ([2]; CPT-11 60 mg/kg iv) is reported as 0/8, the “T/C % (median increase in survival time)” value ([3]; CPT-11 60 mg/kg iv) is reported as 215% and the Tumor weight ([3]; CPT-11 60 mg/kg iv) is reported as 0.05 ± 0.2 gr. For the same molecule, the “A.U.C. % inhib. (inhibition of tumor growth)” value ([3]; CPT-11 60 mg/kg iv) was 100% and the “TGD (tumor growth delay)” value ([3]; CPT-11 60 mg/kg iv) was 34 days.
Work on `CC(=O)O[C@H]1C(=O)[C@@]2(C)[C@H]([C@H](OC(=O)c3ccccc3)[C@]3(O)C[C@H](OC(=O)[C@H](O)[C@@H](NC(=O)c4ccccc4)c4ccccc4)C(C)=C1C3(C)C)[C@]1(OC(C)=O)CO[C@@H]1C[C@@H]2O` [PACLITAXEL, paclitaxel] yielded an activity at 0.00625 µg/mL ([1]; Mus musculus, M5076, cytotoxic 6.25 ng/ml, PNU 145156E 0 ng/ml, 72 h, 37° C., read-out: % cell growth ± S.E.) of 89 ± 1%, an activity at 0.025 µg/mL ([1]; Mus musculus, M5076, cytotoxic 25 ng/ml, PNU 145156E 0 ng/ml, 72 h, 37° C., read-out: % cell growth ± S.E.) of 50 ± 7% and an activity at 0.1 µg/mL ([1]; Mus musculus, M5076, cytotoxic 100 ng/ml, PNU 145156E 0 ng/ml, 72 h, 37° C., read-out: % cell growth ± S.E.) of 1 ± 1%. The “% cell growth ± S.E.” value ([1]; cytotoxic 6.25 ng/ml + PNU 145156E 50000 ng/ml, 72 h, 37° C.) was 87 ± 14%, the “% cell growth ± S.E.” value ([1]; cytotoxic 25 ng/ml + PNU 145156E 50000 ng/ml, 72 h, 37° C.) was 43 ± 1% and the “% cell growth ± S.E.” value ([1]; cytotoxic 100 ng/ml + PNU 145156E 50000 ng/ml, 72 h, 37° C.) was 2 ± 0%. For the same molecule, the “antiproliferative activity” value [1] was “unchanged in the presence of PNU 145156E”, the Toxic/total mice ([2]; TX 33 mg/kg iv) was 0/10 and the Toxic/total mice ([2]; TX 40 mg/kg iv) was 0/10. The “T/C % (median increase in survival time)” value ([3]; TX 33 mg/kg iv) was 108%, the Tumor weight ([3]; TX 33 mg/kg iv) was 2.34 ± 0.9 gr and the “A.U.C. % inhib. (inhibition of tumor growth)” value ([3]; TX 33 mg/kg iv) was 77%. For the same molecule, the “TGD (tumor growth delay)” value ([3]; TX 33 mg/kg iv) was 8 days, the “T/C % (median increase in survival time)” value ([3]; TX 40 mg/kg iv) was 118% and the Tumor weight ([3]; TX 40 mg/kg iv) was 1.3 ± 0.7 gr. The “A.U.C. % inhib. (inhibition of tumor growth)” value ([3]; TX 40 mg/kg iv) was 93% and the “TGD (tumor growth delay)” value ([3]; TX 40 mg/kg iv) was 9 days.
`CCc1c2c(nc3ccc(O)cc13)-c1cc3c(c(=O)n1C2)COC(=O)[C@]3(O)CC` [SN-38] showed an activity at 0.0065 µg/mL ([1]; Mus musculus, M5076, 72 h, cytotoxic 6.5 ng/ml, PNU 145156E 0 ng/ml, 72 h, 37° C., read-out: % cell growth ± S.E.) of 75 ± 5%, an activity at 0.0125 µg/mL ([1]; Mus musculus, M5076, 72 h, cytotoxic 12.5 ng/ml, PNU 145156E 0 ng/ml, 72 h, 37° C., read-out: % cell growth ± S.E.) of 19 ± 2% and an activity at 0.035 µg/mL ([1]; Mus musculus, M5076, 72 h, cytotoxic 35 ng/ml, PNU 145156E 0 ng/ml, 72 h, 37° C., read-out: % cell growth ± S.E.) of 5 ± 1%. For the same molecule, the “% cell growth ± S.E.” value ([1]; cytotoxic 6.5 ng/ml + PNU 145156E 50000 ng/ml, 72 h, 37° C.) was 74 ± 7%, the “% cell growth ± S.E.” value ([1]; cytotoxic 12.5 ng/ml + PNU 145156E 50000 ng/ml, 72 h, 37° C.) was 25 ± 7% and the “antiproliferative activity” value [1] was “unchanged in the presence of PNU 145156E”.
